Measurements published in patent US4550170A, “6-Phenyl-2,3,5,6-tetrahydroimidazo-[2,1-b]-thiazole derivatives” (Institut Organicheskoi Khimii Akademii Nauk Ukrainskoi SSR, priority 1984, dated 1985).
Like-named read-outs stand apart in the source and are kept apart here.

How the values were obtained:
[1] = test system: delayed-type hypersensitivity reaction; test: delayed-type hypersensitivity reaction to 2,4-dinitrochlorobenzene in guinea pigs; type: in vivo
in vivo = settings: mouse, sc
[2] = test system: delayed-type hypersensitivity reaction; test: delayed-type hypersensitivity reaction to rat's thymocytes in mice (popliteal lymph nodes); type: in vivo
[3] = physical properties of the compounds; type: physicochemical
[4] = test system: IgE antibodies in respiratory organs
Method: The local production of IgE-antibodies in trachea and lungs of rats of the lines WAY, August with a mass of 250-300 g was induced by means of a successive (with the interval of 40 minutes) dropping a 0.1% solution of histamine and ambrosia allergen (10,000 PNU/ml) into both nasal passages. […] One day after the administration of the allergen IgE-antibodies were determined in homogenates of trachea and lungs prepared at the rate of 0.1 ml of a physiological solution per 10 mg of the tissue by the method of indirect degranulation of obese cells.

[5] = test system: virus of vesicular stomatitis; type: cell-based
[6] = test system: allergic reaction of the delayed type in mice; test: delayed-type (contact) hypersensitivity reaction to dinitrochlorobenzene, ear thickness in mice; type: in vivo, CBA mice; settings: for Ear thickness, Control, Average value / Ear thickness, Control, Range of fluctuations: control (right) ear; for Ear thickness, Experiment, Average value / Ear thickness, Experiment, Range of fluctuations: test (left) ear
[7] = 100 μg/ml, negative = test value exceeded the control
[8] = 100 μg/ml, certainty: (II), (III) below 0.05, (I), levamizole above 0.05
[9] = 500 μg/ml, certainty: all below 0.05

## COC(=O)C[N+]1=C2SCCN2CC1c1ccccc1 (stereo not shown) [Compound (I), 2,3,5,6-tetrahydro-6-phenyl-7-methoxycarbonylmethylimidazo-[2,1-b]-thiazolium bromide]
[1]; [7]
  Difference in temperature of the pad surfaces, Average value: -1.5 ± 0.27 °C
  Difference in thickness of control and test talipes, Average value: -0.6 ± 0.062 mm
In vivo
  LD50: 262 mg/kg
[2]; [7]
  Difference in masses of popliteal lymph nodes in the control and test limb, Average value: -1.1 ± 0.08 mg
[2]; 500 μg/ml
  Difference in masses of popliteal lymph nodes in the control and test limb, Average value: +1.3 ± 0.2 mg
[3]; acetone
  solubility in acetone: sparingly soluble
[3]; benzene
  solubility in benzene: sparingly soluble
[3]
  solubility in lower alcohols: soluble
  solubility in water: soluble
[4]; [8]
  Percent of degranulated mastocytes, Lungs: 19.4 ± 1.8%
  Percent of degranulated mastocytes, Trachea: 17.8 ± 1.3%
[4]; [9]
  Percent of degranulated mastocytes, Lungs: 9.3 ± 0.8%
  Percent of degranulated mastocytes, Trachea: 7.0 ± 0.2%

## CCCCCCCCCCOC(=O)C[N+]1=C2SCCN2CC1c1ccccc1 (stereo not shown) [Compound (II), 2,3,5,6-tetrahydro-6-phenyl-7-decyloxycarbonylmethylimidazo-[2,1-b]-thiazolium bromide]
[1]; 1,000 μg/ml
  Difference in temperature of the pad surfaces, Average value: +1.2 ± 0.16 °C
  Difference in thickness of control and test talipes, Average value: +0.63 ± 0.09 mm
[5]; 1 μg/ml
  Degree of inhibition of the virus reproduction: 10 times
[5]; 10 μg/ml
  Degree of inhibition of the virus reproduction: 100 times
In vivo
  LD50: 167 mg/kg
[2]; 1,000 μg/ml
  Difference in masses of popliteal lymph nodes in the control and test limb, Average value: +1.3 ± 0.29 mg
[3]
  solubility in lower alcohols: soluble
  solubility in water: soluble
[4]; [8]
  Percent of degranulated mastocytes, Lungs: 6.8 ± 0.9%
  Percent of degranulated mastocytes, Trachea: 15.0 ± 1.8%
[4]; [9]
  Percent of degranulated mastocytes, Lungs: 6.5 ± 0.9%
  Percent of degranulated mastocytes, Trachea: 3.5 ± 1.2%
[6]; 2.5 mg/kg per os
  Ear thickness, Control, Average value: 202.2 μm
  Ear thickness, Control, Range of fluctuations: 150-250 μm
  Ear thickness, Experiment, Average value: 222.8 μm
  Ear thickness, Experiment, Range of fluctuations: 175-300 μm
[6]; 25 mg/kg per os
  Ear thickness, Control, Average value: 178.9 μm
  Ear thickness, Control, Range of fluctuations: 150-240 μm
  Ear thickness, Experiment, Average value: 184.4 μm
  Ear thickness, Experiment, Range of fluctuations: 170-240 μm
[6]; ratio to levamizole
  dose sufficient for inhibition of the contact hypersensitivity, lower than that of levamizole: 10 times
